Results as given in publication PMC12627007, “HIV nucleocapsid proteins as targets for novel 1,2-benzisothiazol-3(2H)-one benzenesulfonamides: synthesis and antiretroviral activity” (Frontiers in Microbiology, 2025).
Like-named read-outs stand apart in the source and are kept apart here.

Assays:
HIV-1 IIIB strain = test: microbe, parasite or virus in culture; format: cell-based; settings: for EC50: Human immunodeficiency virus 1, IIIB; for Selectivity Index (SI = CC50/EC50) HIV-1: IIIB strain, in round brackets
Description: (§1) HIV-1IIIB and HIV-2 CBL-20 strains were obtained from the supernatants of persistently infected H9/IIIB and CEM cells, respectively. HIV-1 and HIV-2 stock solutions had titres of 4.5 × 10^7 and 1.4 × 10^6 50% cell culture infectious doses (CCID50)/ml, respectively. […] The K103R + V179D + P225H mutant (EFVR) was derived from an IIIB strain passaged in MT-4 cells in the presence of Efavirenz (up to 2 μM). N119, A17 and EFV^R stock solutions had titres of 1.2 × 10^8, 2.1 × 10^7, and 4.0 × 10^7 CCID50/ml, respectively.
(§2) The activity of the test compounds against the replication of HIV-1 wt and mutant strains (N119, A17, EFV^R, AZT^R, MDR, SAQ^R) and HIV-2 wt in acutely infected cells was based on the inhibition of virus-induced cytopathogenicity in MT-4 and C8166 cells, respectively. Briefly, 50 μL of culture medium containing 1 × 10^4 cells was added to each well of flat-bottom microtitre trays containing 50 μL of culture medium with or without different serial concentrations of test compounds. Then, 20 μL of an HIV suspension (containing the appropriate amount of CCID50 required to cause complete cytopathogenicity on day 4, final multiplicity of infection [m.o.i.] 0.01) was added.

HIV-2 CBL-20 strain = test: Inhibition of HIV-2-induced cytopathogenicity in C8166 cells (MTT); format: cell-based; settings: for Selectivity Index (SI = CC50/EC50) HIV-2: in round brackets
Description: as §1, §2

cell-free HIV-1 = test: Virucidal activity against cell-free HIV-1 (Reed-Muench titration); format: cell-based; settings: 0 °C; compound 6 80 μM, AMPH-B 100 μM
Description: (§3) Cell-free, high-titre HIV-1 and HIV-2 stock solutions were exposed to the test compounds for 2 h at 0 °C or 37 °C. At the end of incubation, residual infectivity was determined using the Reed–Muench end-point titration method, as described below.
(§4) Titration was performed in C8166 cells using the standard limiting dilution method (dilution 1:2, four replica wells/dilution) in 96-well plates.

cell-free HIV-2 = test: Virucidal activity against cell-free HIV-2 (Reed-Muench titration); format: cell-based; settings: 0 °C; compound 6 80 μM, AMPH-B 100 μM
Description: as §3, §4

[1] = Cytotoxicity in mock-infected MT-4 cells (MTT method); format: cell-based; settings: human
Description: as §2, with “added. After incubation at 37 °C, cell viability was determined using the […] (MTT) method ([Pauwels et al., 1988]). The cytotoxicity of the test compounds was evaluated in parallel with their antiviral activity through the viability of mock-infected, treated cells, as monitored by the MTT method and described elsewhere ([Morellet et al., 1994]).” for “added.”

HIV-1 N119 (Y181C) = test: Inhibition of virus-induced cytopathogenicity in MT-4 cells, NNRTI-resistant mutant N119; format: cell-based; settings: for EC50: Human immunodeficiency virus 1, MT4, read-out: EC50 N119; for Selectivity Index (SI = CC50/EC50) N119: in round brackets
Description: as §1, §2

[2] = system: HIV-1 A17 (K103N + Y181C); test: Inhibition of virus-induced cytopathogenicity in MT-4 cells, NNRTI-resistant mutant A17; format: cell-based; settings: for EC50: Human immunodeficiency virus 1, MT4, read-out: EC50 A17; for Selectivity Index (SI = CC50/EC50) A17: in round brackets
Description: as §1, §2

[3] = system: HIV-1 EFVR (K103R + V179D + P225H); test: Inhibition of virus-induced cytopathogenicity in MT-4 cells, NNRTI-resistant mutant EFVR; format: cell-based; settings: for EC50: Human immunodeficiency virus 1, MT4, read-out: EC50 EFVR; for Selectivity Index (SI = CC50/EC50) EFVR: in round brackets
Description: as §1, §2

[4] = system: HIV-1 AZTR (67N, 70R, 215F, 219Q); test: Inhibition of virus-induced cytopathogenicity in MT-4 cells, NRTI-resistant mutant AZTR; format: cell-based; settings: for EC50: Human immunodeficiency virus 1, MT4, read-out: EC50 AZTR; for Selectivity Index (SI = CC50/EC50) AZTR: in round brackets
Description: as §1, §2

[5] = system: HIV-1 MDR (74V, 41L, 106A, 215Y); test: Inhibition of virus-induced cytopathogenicity in MT-4 cells, NRTI-resistant mutant MDR; format: cell-based; settings: for EC50: Human immunodeficiency virus 1, MT4, read-out: EC50 MDR; for Selectivity Index (SI = CC50/EC50) MDR: in round brackets
Description: as §1, §2

[6] = system: HIV-1 SAQR (L10F, G48V, L90M); test: Inhibition of virus-induced cytopathogenicity in MT-4 cells, PRI-resistant mutant SAQR; format: cell-based; settings: for EC50: Human immunodeficiency virus 1, MT4, read-out: EC50 SAQR; for Selectivity Index (SI = CC50/EC50) SAQR: in round brackets
Description: as §1, §2

[7] = microbe, parasite or virus in culture; format: cell-based, HIV-1; settings: all tested strains (HIV-1 wt, mutants, HIV-2)
Description: as §1, §2

[8] = biological target: T1, HIV-1 reverse transcriptase (Human immunodeficiency virus type 1 group M subtype B, UniProt P04585); test: Reverse transcriptase enzyme assay; format: biochemical
T1 construct: recombinant HIV-1 reverse transcriptase

[9] = biological target: T2, HIV-1 recombinant integrase (rIN) (Human immunodeficiency virus type 1 group M subtype B, UniProt P04585); test: Integrase (rIN) enzyme assays: 3'-processing and strand transfer; format: biochemical
T2 construct: HIV-1 recombinant integrase (rIN); made in house
From the text: ^aCompound concentration (µM) required to reduce the amount of 3’-end-labeled duplex of 21/19mers substrates, in 3’-processing and strand-transfer reactions catalyzed by the recombinant HIV-1 integrase, by 50%. Data represent mean values for three independent determinations.

[10] = Human immunodeficiency virus 2, C8166, read-out: EC50 HIV-2

| SMILES | EC50 (HIV-1 IIIB strain; MT4, read-out: EC50 HIV-1) | EC50 (HIV-1 N119 (Y181C)) | EC50 [2] | EC50 [3] | EC50 [4] | EC50 [5] | EC50 [6] | EC50 (HIV-2 CBL-20 strain; [10]) | CC50 at 4 days [1] | Selectivity Index (SI) against all tested strains [7] | Selectivity Index (SI = CC50/EC50) HIV-1 (HIV-1 IIIB strain) | Selectivity Index (SI = CC50/EC50) N119 (HIV-1 N119 (Y181C)) | Selectivity Index (SI = CC50/EC50) A17 [2] | Selectivity Index (SI = CC50/EC50) EFVR [3] | Selectivity Index (SI = CC50/EC50) AZTR [4] | Selectivity Index (SI = CC50/EC50) MDR [5] | Selectivity Index (SI = CC50/EC50) SAQR [6] | Selectivity Index (SI = CC50/EC50) HIV-2 (HIV-2 CBL-20 strain) | also measured |
| --- | --- | --- | --- | --- | --- | --- | --- | --- | --- | --- | --- | --- | --- | --- | --- | --- | --- | --- | --- |
| C[C@@H]1[C@H](O)[C@@H](C)/C=C/C=C/C=C/C=C/C=C/C=C/C=C/[C@H](O[C@@H]2O[C@H](C)[C@@H](O)[C@H](N)[C@@H]2O)C[C@@H]2O[C@](O)(C[C@@H](O)C[C@@H](O)[C@H](O)CC[C@@H](O)C[C@@H](O)CC(=O)O[C@H]1C)C[C@H](O)[C@H]2C(=O)O [AMPH-B, Amphotericin B, reference compound] | – | – | – | – | – | – | – | – | – | – | – | – | – | – | – | – | – | – | EC50 (HIV-1 IIIB strain; MT4, read-out: EC50 HIV-1 (Table 2)): 6 ± 3 µM; EC50 (HIV-2 CBL-20 strain; Human immunodeficiency virus 2, C8166, read-out: EC50 HIV-2 (Table 2)): 2 ± 0.3 µM; Effect on HIV-1 infectivity, incubation at 0 °C (cell-free HIV-1): still able to reduce it by a high percentage; Effect on HIV-2 infectivity, incubation at 0 °C (cell-free HIV-2): more than 1 log10 |
| Cc1cn([C@H]2C[C@H](N=[N+]=[N-])[C@@H](CO)O2)c(=O)[nH]c1=O [AZT, azidothymidine, reference compound] | 0.01 ± 0.003 µM | 0.02 ± 0.001 µM | 0.01 ± 0.003 µM | 0.01 ± 0.002 µM | 0.2 ± 0.05 µM | 0.2 ± 0.07 µM | 0.01 ± 0.005 µM | 0.008 ± 0.001 µM | – | – | – | – | – | – | – | – | – | – | CC50 ([1]; MT-4, MTT method): ≥ 20 µM |
| Cc1ccc(S(=O)(=O)Nn2sc3ccccc3c2=O)cc1 [Compound 7, 4-Methyl-N-(3-oxo-1,2-benzisothiazol-2(3H)-yl)benzenesulfonamide] | 10 ± 3 µM | 5 ± 0.1 µM | 8 ± 1 µM | 8 ± 3 µM | 8 ± 1 µM | 6 ± 0.7 µM | 9 ± 2 µM | 4 ± 0.7 µM | 35 ± 1 µM | around 10 | 3.5 | 7 | 4 | 4 | 4 | 5 | 3 | 8 | IC50 [8]: > 30 µM; Inhibition of recombinant HIV-1 RT ([8]; at concentrations of 30 μM): none of the benzenesulfonamides were active; IC50 [9]: > 30 µM; Inhibition of recombinant HIV-1 IN ([9]; at concentrations of 30 μM): none of the benzenesulfonamides were active; IC50 ([9]; read-out: IC50 Strand-transfer, recombinant HIV-1 integrase): > 30 µM |
| Cc1ccc2sn(NS(=O)(=O)c3ccccc3Cl)c(=O)c2c1 [Compound 17, 2-Chloro-N-(5-methyl-3-oxo-1,2-benzisothiazol-2(3H)-yl)benzenesulfonamide] | 2 ± 1 µM | 5 ± 0.7 µM | 9 ± 3 µM | 5 ± 2 µM | 4 ± 0.7 µM | 3 ± 0.5 µM | 6 ± 1 µM | 4 ± 0.5 µM | 73 ± 0.1 µM | around 10 | 36 | 14 | 8 | 14 | 18 | 23 | 12 | 18 | – |
